Results reported in patent publication US10681909B2, “Herbicidal triazoles” (FMC Corporation, priority 2014, dated 2020).

Assays:
ryegrass, Italian = test: Test A postemergence; assay type: in vivo, Lolium multiflorum; conditions: 0 to 100 scale (0 no effect, 100 complete control), approx. 10 d
In short: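 Visual 0–100 ratings (0 no effect, 100 complete control) made roughly 10 days after treatment, comparing greenhouse-grown plants to untreated controls. Formulated test chemicals, with surfactant, went either as directed soil spray at planting or onto 2–10 cm seedlings bearing one to two leaves.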

blackgrass = test: Test C preemergence; assay type: in vivo, Alopecurus myosuroides; conditions: for Plant response rating (scale of 0 to 100 where 0 is no effect and 100 is complete control): Blackgrass, preemergence; for Blackgrass plant response rating (0 to 100): Preemergence, visual rating after 13 to 15 d
Text: (§1) Seeds of plant species selected from blackgrass (Alopecurus myosuroides), ryegrass, Italian (Italian ryegrass, Lolium multiflorum), wheat (winter wheat, Triticum aestivum), galium (catchweed bedstraw, Galium aparine), corn (Zea mays), crabgrass, large (large crabgrass, Digitaria sanguinalis), foxtail, giant, (giant foxtail, Setaria faberii), johnsongrass (Sorghum halepense), lambsquarters (Chenopodium album), morningglory (Ipomoea coccinea), nutsedge, yellow (yellow nutsedge, Cyperus esculentus), pigweed (Amaranthus retroflexus), ragweed (common ragweed, Ambrosia elatior), soybean (Glycine max), barnyardgrass (Echinochloa crus-galli), oilseed rape (Brassica napus), waterhemp (common waterhemp, Amaranthus rudis), and velvetleaf (Abutilon theophrasti) were planted into a blend of loam soil and sand and treated preemergence with test chemicals formulated in a non-phytotoxic solvent mixture which included a surfactant. At the same time, plants selected from these crop and weed species and also chickweed (common chickweed, Stellaria media), oat, wild (wild oat, Avena fatua), and kochia (Kochia scoparia), were planted in pots containing Sunshine Redi-Earth® planting medium comprising spaghnum peat moss, vermiculite, starter nutrients and dolomitic limestone and treated with postemergence applications of test chemicals formulated in the same manner. Plants ranged in height from 2 to 18 cm (1- to 4-leaf stage) for postemergence treatments. […] A dash (-) response means no test result.

crabgrass, large = test: Test C preemergence; assay type: in vivo, Digitaria sanguinalis; conditions: for Plant response rating (scale of 0 to 100 where 0 is no effect and 100 is complete control): Crabgrass, Large, preemergence; for Crabgrass, Large plant response rating (0 to 100): Preemergence, visual rating after 13 to 15 d
Text: as §1

ryegrass, Ital. = test: Test D preemergence; assay type: in vivo, Lolium multiflorum; conditions: for Plant response rating (0 to 100), Ryegrass, Ital.: 16 g ai/ha, 0 is no effect, 100 is complete control; for Plant response rating: Ryegrass, Ital.: scale 0 to 100
Text: (§2) Seeds of plant species selected from bluegrass (annual bluegrass, Poa annua), blackgrass (Alopecurus myosuroides), canarygrass (Phalaris minor), chickweed (common chickweed, Stellaria media), galium (catchweed bedstraw, Galium aparine), bromegrass, down (downy bromegrass, Bromus tectorum), Russian thistle (Salsola kali), field poppy (Papaver rhoeas), field violet (Viola arvensis), foxtail, green (green foxtail, Setaria viridis), deadnettle (henbit deadnettle, Lamium amplexicaule), ryegrass, Ital. (Italian ryegrass, Lolium multiflorum), kochia (Kochia scoparia), lambsquarters (Chenopodium album), oilseed rape (Brassica napus), pigweed (Amaranthus retroflexus), chamomile (scentless chamomile, Matricaria inodora), speedwell (bird's-eye speedwell, Veronica persica), barley, spring (spring barley, Hordeum vulgare), wheat, spring (spring wheat, Triticum aestivum), buckwheat, wild (wild buckwheat, Polygonum convolvulus), wild mustard (Sinapis arvensis), oat, wild (wild oat, Avena fatua), radish, wild (wild radish, Raphanus raphanistrum), […]), barley, winter (winter barley, Hordeum vulgare), and wheat, winter (winter wheat, Triticum aestivum) were planted into a silt loam soil and treated preemergence with test chemicals formulated in a non-phytotoxic solvent mixture which included a surfactant. At the same time, these species were planted in pots containing Sunshine Redi-Earth® planting medium comprising spaghnum peat moss, vermiculite, starter nutrients and dolomitic limestone and treated with postemergence applications of the test chemicals formulated in the same manner. Plants ranged in height from 2 to 18 cm (1- to 4-leaf stage). Treated plants and controls were maintained in a controlled growth environment for 14 to 21 d after which time all species were compared to controls and visually evaluated. […] A dash (-) response means no test result.

lambsquarters = test: Test D postemergence; assay type: in vivo, Chenopodium album; conditions: scale 0 to 100
Text: as §2

wheat, spring = test: Test D postemergence; assay type: in vivo, Triticum aestivum; conditions: scale 0 to 100
Text: as §2

wheat, winter = test: Test D postemergence; assay type: in vivo, Triticum aestivum; conditions: scale 0 to 100
Text: as §2

## CCOc1nc(-c2ccccc2)nn1Cc1ccnc(C(F)(F)F)c1 [Compound 27]
ryegrass, Italian; 125 g ai/ha
  Plant response rating, Ryegrass, Italian: 50
ryegrass, Italian; 500 g ai/ha
  Plant response rating, Ryegrass, Italian: 90
blackgrass; 125 g ai/ha
  Plant response rating (scale of 0 to 100 where 0 is no effect and 100 is complete control): 50
blackgrass; 250 g ai/ha
  Plant response rating (scale of 0 to 100 where 0 is no effect and 100 is complete control): 90
blackgrass; 31 g ai/ha
  Blackgrass plant response rating (0 to 100): 5
blackgrass; 62 g ai/ha
  Blackgrass plant response rating (0 to 100): 5
crabgrass, large; 125 g ai/ha
  Plant response rating (scale of 0 to 100 where 0 is no effect and 100 is complete control): 100
crabgrass, large; 250 g ai/ha
  Plant response rating (scale of 0 to 100 where 0 is no effect and 100 is complete control): 100
crabgrass, large; 31 g ai/ha
  Crabgrass, Large plant response rating (0 to 100): 100
crabgrass, large; 62 g ai/ha
  Crabgrass, Large plant response rating (0 to 100): 100
ryegrass, Ital.
  Plant response rating (0 to 100), Ryegrass, Ital.: 25
ryegrass, Ital.; 62 g ai/ha
  Plant response rating: Ryegrass, Ital.: 65
ryegrass, Ital.; 125 g ai/ha
  Plant response rating: Ryegrass, Ital.: 75
lambsquarters; 16 g ai/ha
  Plant response rating: Lambsquarters: 85
lambsquarters; 31 g ai/ha
  Plant response rating: Lambsquarters: 95
lambsquarters; 62 g ai/ha
  Plant response rating: Lambsquarters: 95
lambsquarters; 125 g ai/ha
  Plant response rating: Lambsquarters: 95
wheat, spring; 16 g ai/ha
  Plant response rating: Wheat, Spring: 15
wheat, spring; 31 g ai/ha
  Plant response rating: Wheat, Spring: 15
wheat, spring; 62 g ai/ha
  Plant response rating: Wheat, Spring: 20
wheat, spring; 125 g ai/ha
  Plant response rating: Wheat, Spring: 35
wheat, winter; 16 g ai/ha
  Plant response rating: Wheat, Winter: 25
wheat, winter; 31 g ai/ha
  Plant response rating: Wheat, Winter: 25
wheat, winter; 62 g ai/ha
  Plant response rating: Wheat, Winter: 30
wheat, winter; 125 g ai/ha
  Plant response rating: Wheat, Winter: 30

## FC(F)(F)COc1nc(-c2ccc(Cl)cc2)nn1Cc1ccnc(C(F)(F)F)c1 [Compound 31]
ryegrass, Italian; 125 g ai/ha
  Plant response rating, Ryegrass, Italian: 50
ryegrass, Italian; 500 g ai/ha
  Plant response rating, Ryegrass, Italian: 80
blackgrass; 125 g ai/ha
  Plant response rating (scale of 0 to 100 where 0 is no effect and 100 is complete control): 90
blackgrass; 250 g ai/ha
  Plant response rating (scale of 0 to 100 where 0 is no effect and 100 is complete control): 95
blackgrass; 31 g ai/ha
  Blackgrass plant response rating (0 to 100): 80
blackgrass; 62 g ai/ha
  Blackgrass plant response rating (0 to 100): 70
crabgrass, large; 125 g ai/ha
  Plant response rating (scale of 0 to 100 where 0 is no effect and 100 is complete control): 100
crabgrass, large; 250 g ai/ha
  Plant response rating (scale of 0 to 100 where 0 is no effect and 100 is complete control): 100
crabgrass, large; 31 g ai/ha
  Crabgrass, Large plant response rating (0 to 100): 98
crabgrass, large; 62 g ai/ha
  Crabgrass, Large plant response rating (0 to 100): 98
ryegrass, Ital.
  Plant response rating (0 to 100), Ryegrass, Ital.: 40
ryegrass, Ital.; 62 g ai/ha
  Plant response rating: Ryegrass, Ital.: 50
ryegrass, Ital.; 125 g ai/ha
  Plant response rating: Ryegrass, Ital.: 100
lambsquarters; 16 g ai/ha
  Plant response rating: Lambsquarters: 75
lambsquarters; 31 g ai/ha
  Plant response rating: Lambsquarters: 95
lambsquarters; 62 g ai/ha
  Plant response rating: Lambsquarters: 85
lambsquarters; 125 g ai/ha
  Plant response rating: Lambsquarters: 90
wheat, spring; 16 g ai/ha
  Plant response rating: Wheat, Spring: 30
wheat, spring; 31 g ai/ha
  Plant response rating: Wheat, Spring: 35
wheat, spring; 62 g ai/ha
  Plant response rating: Wheat, Spring: 40
wheat, spring; 125 g ai/ha
  Plant response rating: Wheat, Spring: 45
wheat, winter; 16 g ai/ha
  Plant response rating: Wheat, Winter: 20
wheat, winter; 31 g ai/ha
  Plant response rating: Wheat, Winter: 20
wheat, winter; 62 g ai/ha
  Plant response rating: Wheat, Winter: 20
wheat, winter; 125 g ai/ha
  Plant response rating: Wheat, Winter: 30

## FC(F)(F)COc1nc(-c2ccccc2)nn1Cc1ccnc(C(F)(F)F)c1 [Compound 24]
ryegrass, Italian; 125 g ai/ha
  Plant response rating, Ryegrass, Italian: 30
ryegrass, Italian; 500 g ai/ha
  Plant response rating, Ryegrass, Italian: 60
blackgrass; 125 g ai/ha
  Plant response rating (scale of 0 to 100 where 0 is no effect and 100 is complete control): 90
blackgrass; 250 g ai/ha
  Plant response rating (scale of 0 to 100 where 0 is no effect and 100 is complete control): 90
blackgrass; 31 g ai/ha
  Blackgrass plant response rating (0 to 100): 10
blackgrass; 62 g ai/ha
  Blackgrass plant response rating (0 to 100): 60
crabgrass, large; 125 g ai/ha
  Plant response rating (scale of 0 to 100 where 0 is no effect and 100 is complete control): 100
crabgrass, large; 250 g ai/ha
  Plant response rating (scale of 0 to 100 where 0 is no effect and 100 is complete control): 100
crabgrass, large; 31 g ai/ha
  Crabgrass, Large plant response rating (0 to 100): 98
crabgrass, large; 62 g ai/ha
  Crabgrass, Large plant response rating (0 to 100): 98
ryegrass, Ital.
  Plant response rating (0 to 100), Ryegrass, Ital.: 40
ryegrass, Ital.; 62 g ai/ha
  Plant response rating: Ryegrass, Ital.: 40
ryegrass, Ital.; 125 g ai/ha
  Plant response rating: Ryegrass, Ital.: 45
lambsquarters; 16 g ai/ha
  Plant response rating: Lambsquarters: 65
lambsquarters; 31 g ai/ha
  Plant response rating: Lambsquarters: 75
lambsquarters; 62 g ai/ha
  Plant response rating: Lambsquarters: 80
lambsquarters; 125 g ai/ha
  Plant response rating: Lambsquarters: 85
wheat, spring; 16 g ai/ha
  Plant response rating: Wheat, Spring: 15
wheat, spring; 31 g ai/ha
  Plant response rating: Wheat, Spring: 15
wheat, spring; 62 g ai/ha
  Plant response rating: Wheat, Spring: 25
wheat, spring; 125 g ai/ha
  Plant response rating: Wheat, Spring: 15
wheat, winter; 16 g ai/ha
  Plant response rating: Wheat, Winter: 15
wheat, winter; 31 g ai/ha
  Plant response rating: Wheat, Winter: 15
wheat, winter; 62 g ai/ha
  Plant response rating: Wheat, Winter: 20
wheat, winter; 125 g ai/ha
  Plant response rating: Wheat, Winter: 20
